Data published in US20220153751A1, “BIFUNCTIONAL COMPOUNDS” (BioTheryX, Inc., priority 2018, published 2022).

Key:
Assay type in all cases: cell-based
IKAROS = target: T1, IKAROS (Homo sapiens, UniProt Q13422+Q96SW2); assay: IKAROS degradation assay (Western blot, MV-4-11 cells); conditions: MV4-11, 6-8 h
T1 construct: endogenous in cells; host or cells: MV-4-11
Method: (§1) MV-4-11 cells were grown in RPMI 1640 media supplemented with 10% fetal bovine serum, streptomycin and penicillin.
(§2) Cells were cultured at approximately 10^6 cells per mL and incubated in DMSO or the indicated compound for 6-8 h. Whole cell extracts were prepared using RIPA buffer according to manufacturer's protocol (Pierce). Briefly, 3×10^6 cells were washed once in PBS, the cell pellets were resuspended in RIPA buffer and allowed to incubate for 15 minutes on ice. Cells debris was removed by centrifugation and the cleared whole cell lysates were transferred to new tubes for further analysis.
(§3) For Western blot analysis, whole cell protein extracts were separated on 4-12% SDS-polyacrylamide gels, transferred to nitrocellulose and probed with the indicated primary antibodies. Membranes were subsequently washed and probed with the appropriate IRDye secondary antibodies (LI-COR). The signal was detected using the Odyssey Imaging System (LI-COR).
(§4) The following antibodies were used in these studies: Anti-eRF3/GSPT1: Abcam, ab126090 (Cambridge, Mass.); Anti-Ikaros: Abcam, ab191394 (Cambridge, Mass.); Anti-CK1α: Abcam, ab108296 (Cambridge, Mass.); Anti-CDK9: Santa Cruz Biotechnology, sc13130 (Dallas, Tex.); Anti-CDK16: Millipore Sigma, HPA001366 (St. Louis, Mo.); 3-actin (8H10comD10) mouse monoclonal antibody: Cell Signaling Technology, #3700 (Danvers, Mass.); IRDye 680RD Goat anti-rabbit antibody: LI-COR, 926-68071 (Lincoln, Nebr.); IRDye 800CW Goat anti-mouse antibody: LI-COR, 926-32210 (Lincoln, Nebr.).
(§5) CDK9 activities are shown in Table 4 at two different concentrations. CDK16 activities are shown in Table 5 at two different concentrations. In each of Tables 1-5, the % degradation values are reported as “A”, “B”, “C”, or “D”. “A” represents a % degradation value of less than 25% (value <25%). “B” represents a % degradation value of equal to or more than 25% and less than 50% (25%≤value<50%). “C” represents a % degradation value of equal to or more than 50% and less than 75% (50%≤value<75%). “D” represents a % degradation value of equal to or more than 75% (value ≥75%).

GSPT1 = target: T2, GSPT1 (Homo sapiens, UniProt P15170+Q96SW2); assay: GSPT1 degradation assay (Western blot, MV-4-11 cells); conditions: MV4-11, 6-8 h
T2 construct: Whole cell extracts were prepared using RIPA buffer; endogenous in cells; host or cells: MV-4-11
Method: as §1, §2, §3, §4, §5

MOLM-13 cells = assay: MOLM-13 cell viability assay (CellTiter-Glo); conditions: Homo sapiens, MOLM-13, 72 h, 3 days, read-out: MOLM-13 Cell Viability % DMSO at 1 μM
Method: MOLM-13 cells were cultured in RPMI 1640 media supplemented with 10% fetal bovine serum, streptomycin and penicillin, and were plated in walled 96-well plates at 2500 cells/well. Cells were incubated in DMSO (control) or the indicated compound for 3 days at 37° C. and 5% CO2. Following the incubation period, 100 μL of CellTiterGlow (CTG) reagent (CellTiter-Glo® Luminescent Cell Viability Assay, Promega (Madison, Wis.)) was added to each well. Following a 10 minutes incubation with shaking, luminescence was measured using the EnVision Multimode plate reader.
The MOLM-13 cell viability values as % DMSO are reported as “A”, “B”, “C”, or “D”. “A” represents a % viability value of less than 50% (value <50%). “B” represents a % viability value of equal to or more than 50% and less than 70% (50%≤value<70%). “C” represents a % viability value of equal to or more than 70% and less than 90% (70%≤value<90%). “D” represents a % viability value of equal or more than 90% (value ≥90%).

CDK16 = target: T3, CDK16 (Homo sapiens, UniProt Q00536); assay: CDK16 degradation assay (Western blot, MV-4-11 cells); conditions: 6-8 h; for Dmax at 0.1 µM: MV4-11, 0.1 μM; for Dmax at 1 µM: MV4-11, 1 μM
T3 construct: Whole cell extracts were prepared using RIPA buffer; endogenous in cells; host or cells: MV-4-11
Method: as §1, §2, §3, §4, §5

CDK9 = target: T4, CDK9 (Homo sapiens, UniProt P50750); assay: CDK9 degradation assay (Western blot, MV-4-11 cells); conditions: 6-8 h; for Dmax at 0.1 µM: MV4-11, 0.1 μM; for Dmax at 1 µM: MV4-11, 1 μM
T4 construct: Whole cell extracts were prepared using RIPA buffer; endogenous in cells; host or cells: MV-4-11
Method: as §1, §2, §3, §4, §5

TNF-α = TNF-α inhibition assay, LPS-induced PBMCs / CD14+ monocytes (Meso Scale); conditions: 1 h pretreatment, 100 ng/mL LPS 18-24 h
Method: (§6) Either frozen primary blood mononuclear cells (PBMCs) or frozen CD14+ mobilized peripheral blood monocytes were purchased from AllCells (PB003F, Normal Peripheral Blood MNC (Alameda, Calif.)). Cells were quick thawed, washed 1-time with RPMI-1640 (10% FBS/1% Pen-Strep) and plated in 96 well plates at 200,000 cells per well. Cells were pretreated with DMSO only or with the indicated compound for 1 h and then induced with 100 ng/mL lipopolysaccharide (LPS) for 18-24 h. The supernatant was analyzed for IL-1β, IL-6, and TNFα, using Meso Scale assay according to manufacturer's protocol. The negative control wells were treated with DMSO.
(§7) In Table 6, the % inhibition values are reported as “A”, “B”, “C”, or “D”. “A” represents a % inhibition value of less than 50% (value <50%). “B” represents a % inhibition value of equal to or more than 50% and less than 70% (50%≤value<70%). “C” represents a % inhibition value of equal to or more than 70% and less than 90% (70%≤value<90%). “D” represents a % inhibition value of equal or more than 90% (value ≥90%). In Table 7, the fold-change values are reported as “A”, “B”, “C”, or “D”. “A” represents a fold-change value of equal to or less than 0.1 (value ≤0.1). “B” represents a fold-change value of more than 0.1 and equal to or less than 0.5 (0.1<value≤0.5). “C” represents a fold-change value of more than 0.5 and equal to or less than 1 (0.5<value≤1). “D” represents a fold-change value of more than 1 (value >1).

IL-6 = IL-6 inhibition assay, LPS-induced PBMCs / CD14+ monocytes (Meso Scale); conditions: 1 h pretreatment, 100 ng/mL LPS 18-24 h
Method: as §6, §7

IL-1β = IL-1β inhibition assay, LPS-induced PBMCs / CD14+ monocytes (Meso Scale); conditions: 1 h pretreatment, 100 ng/mL LPS 18-24 h
Method: as §6, §7

T2 sequence (P15170 whole entry): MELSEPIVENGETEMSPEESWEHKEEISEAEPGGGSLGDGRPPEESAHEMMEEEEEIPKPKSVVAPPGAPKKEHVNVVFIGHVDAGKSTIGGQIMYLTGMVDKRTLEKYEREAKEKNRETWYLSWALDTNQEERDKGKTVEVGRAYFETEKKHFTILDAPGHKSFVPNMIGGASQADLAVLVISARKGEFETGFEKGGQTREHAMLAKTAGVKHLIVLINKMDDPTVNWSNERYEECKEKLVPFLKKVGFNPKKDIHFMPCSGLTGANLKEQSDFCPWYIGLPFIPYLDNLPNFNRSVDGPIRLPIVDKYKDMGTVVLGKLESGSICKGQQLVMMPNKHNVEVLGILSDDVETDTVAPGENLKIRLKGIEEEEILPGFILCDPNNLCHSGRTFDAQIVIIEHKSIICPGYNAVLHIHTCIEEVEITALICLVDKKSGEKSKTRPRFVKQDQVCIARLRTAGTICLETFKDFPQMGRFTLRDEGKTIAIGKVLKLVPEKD
T2 sequence (Q96SW2 whole entry): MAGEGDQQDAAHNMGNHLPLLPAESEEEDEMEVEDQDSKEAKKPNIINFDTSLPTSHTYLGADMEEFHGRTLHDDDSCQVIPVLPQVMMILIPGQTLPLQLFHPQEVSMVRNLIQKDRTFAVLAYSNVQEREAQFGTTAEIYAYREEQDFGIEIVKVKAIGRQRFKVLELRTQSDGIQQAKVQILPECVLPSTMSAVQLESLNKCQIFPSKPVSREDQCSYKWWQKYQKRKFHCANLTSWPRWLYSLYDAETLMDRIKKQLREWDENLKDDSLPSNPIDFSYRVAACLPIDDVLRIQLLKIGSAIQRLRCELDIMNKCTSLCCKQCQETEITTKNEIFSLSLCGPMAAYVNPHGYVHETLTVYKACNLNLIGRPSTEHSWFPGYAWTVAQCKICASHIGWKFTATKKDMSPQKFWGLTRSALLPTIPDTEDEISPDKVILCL
T2 sequence (Q16531 whole entry partner): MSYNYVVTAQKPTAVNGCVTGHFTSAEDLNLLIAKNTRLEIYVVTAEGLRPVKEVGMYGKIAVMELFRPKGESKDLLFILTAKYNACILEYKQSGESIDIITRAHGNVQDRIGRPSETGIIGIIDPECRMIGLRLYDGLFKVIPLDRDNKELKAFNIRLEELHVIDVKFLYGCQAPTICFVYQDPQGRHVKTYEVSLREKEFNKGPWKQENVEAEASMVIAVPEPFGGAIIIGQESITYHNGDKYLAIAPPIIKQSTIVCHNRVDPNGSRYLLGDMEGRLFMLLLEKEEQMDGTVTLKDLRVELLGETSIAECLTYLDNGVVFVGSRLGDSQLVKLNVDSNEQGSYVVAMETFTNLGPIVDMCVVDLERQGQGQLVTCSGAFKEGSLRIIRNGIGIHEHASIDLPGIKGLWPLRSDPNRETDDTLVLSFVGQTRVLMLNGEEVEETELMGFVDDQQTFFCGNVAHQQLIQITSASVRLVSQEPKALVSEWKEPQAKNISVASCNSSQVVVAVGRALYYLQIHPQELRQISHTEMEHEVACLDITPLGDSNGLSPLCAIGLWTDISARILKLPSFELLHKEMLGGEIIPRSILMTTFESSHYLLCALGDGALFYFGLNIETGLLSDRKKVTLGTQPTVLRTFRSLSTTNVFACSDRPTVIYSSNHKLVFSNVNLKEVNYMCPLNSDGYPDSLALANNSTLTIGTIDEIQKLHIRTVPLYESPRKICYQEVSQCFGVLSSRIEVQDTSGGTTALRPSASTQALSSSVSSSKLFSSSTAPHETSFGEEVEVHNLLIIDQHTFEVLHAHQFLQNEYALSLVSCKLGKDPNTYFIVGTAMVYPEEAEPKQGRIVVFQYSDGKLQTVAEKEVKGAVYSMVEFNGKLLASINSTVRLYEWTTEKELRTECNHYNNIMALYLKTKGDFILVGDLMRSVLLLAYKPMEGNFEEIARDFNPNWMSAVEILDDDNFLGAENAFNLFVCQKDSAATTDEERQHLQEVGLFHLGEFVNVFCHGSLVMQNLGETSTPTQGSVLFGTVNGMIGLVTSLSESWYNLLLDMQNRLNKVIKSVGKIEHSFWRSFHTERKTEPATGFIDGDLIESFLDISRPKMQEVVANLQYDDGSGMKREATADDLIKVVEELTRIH
T4 sequence (P50750 whole entry): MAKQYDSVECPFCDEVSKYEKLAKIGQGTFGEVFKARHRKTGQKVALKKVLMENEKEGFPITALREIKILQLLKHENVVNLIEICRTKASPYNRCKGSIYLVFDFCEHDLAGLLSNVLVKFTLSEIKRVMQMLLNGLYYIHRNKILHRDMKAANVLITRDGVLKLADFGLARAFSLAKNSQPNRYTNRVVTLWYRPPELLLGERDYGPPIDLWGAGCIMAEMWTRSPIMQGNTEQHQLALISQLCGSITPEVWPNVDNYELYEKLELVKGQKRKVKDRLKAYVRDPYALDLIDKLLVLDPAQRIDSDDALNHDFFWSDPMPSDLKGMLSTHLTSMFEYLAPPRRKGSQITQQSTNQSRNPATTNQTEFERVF
T3 sequence (Q00536 whole entry): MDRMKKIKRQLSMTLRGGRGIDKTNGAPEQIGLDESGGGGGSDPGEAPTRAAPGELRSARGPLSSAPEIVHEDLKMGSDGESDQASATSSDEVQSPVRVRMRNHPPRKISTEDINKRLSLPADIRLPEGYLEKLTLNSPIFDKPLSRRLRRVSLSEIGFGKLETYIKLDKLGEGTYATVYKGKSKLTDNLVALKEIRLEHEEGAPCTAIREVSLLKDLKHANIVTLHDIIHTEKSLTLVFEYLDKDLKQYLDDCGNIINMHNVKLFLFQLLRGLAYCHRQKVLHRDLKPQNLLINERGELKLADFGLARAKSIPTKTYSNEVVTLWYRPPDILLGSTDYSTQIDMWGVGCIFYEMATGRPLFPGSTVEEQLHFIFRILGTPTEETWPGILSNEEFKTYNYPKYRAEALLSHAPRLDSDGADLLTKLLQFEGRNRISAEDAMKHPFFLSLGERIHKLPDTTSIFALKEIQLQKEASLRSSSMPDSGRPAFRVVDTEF
T1 sequence (Q13422 whole entry): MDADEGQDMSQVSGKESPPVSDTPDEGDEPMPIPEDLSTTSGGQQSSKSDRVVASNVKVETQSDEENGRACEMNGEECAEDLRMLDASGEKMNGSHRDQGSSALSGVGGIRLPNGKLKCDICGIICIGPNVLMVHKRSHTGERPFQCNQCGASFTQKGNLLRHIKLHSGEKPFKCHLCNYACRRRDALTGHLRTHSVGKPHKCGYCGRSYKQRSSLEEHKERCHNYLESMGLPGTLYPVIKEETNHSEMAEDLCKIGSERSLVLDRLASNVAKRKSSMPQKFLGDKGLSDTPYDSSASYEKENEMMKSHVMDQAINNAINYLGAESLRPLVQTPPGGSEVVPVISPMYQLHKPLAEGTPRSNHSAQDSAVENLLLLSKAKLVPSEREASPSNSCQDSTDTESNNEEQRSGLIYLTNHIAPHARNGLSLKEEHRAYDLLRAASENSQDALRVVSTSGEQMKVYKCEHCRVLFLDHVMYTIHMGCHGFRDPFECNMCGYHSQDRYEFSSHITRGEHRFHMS
T1 sequence (Q96SW2 whole entry): as the sequence (Q96SW2 whole entry) above
T1 sequence (Q16531 whole entry partner): as the sequence (Q16531 whole entry partner) above

Dmax at 1 µM (IKAROS) [%]	Dmax at 1 µM (GSPT1) [%]	Dmax at 0.1 µM (CDK16) [%]	Dmax at 1 µM (CDK16) [%]	Dmax at 0.1 µM (CDK9) [%]	Dmax at 1 µM (CDK9) [%]	SMILES	viability at 1 µM (MOLM-13 cells) [%]	inhibition at 1 µM (TNF-α) [%]	inhibition at 1 µM (IL-6) [%]	inhibition at 1 µM (IL-1β) [%]
–	50 to 75	–	–	–	–	Cn1ncc(-c2nc(N[C@H]3CC[C@H](NCCOCCOCCOCCNCc4cc5c(s4)C(=O)N(C4CCC(=O)NC4=O)C5)CC3)ncc2Cl)c1CC1CC1 (some centres unmarked) [Compound 66, 3-(2-(13-(((1r,4r)-4-((5-chloro-4-(5-(cyclopropylmethyl)-1-methyl-1H-pyrazol-4-yl)pyrimidin-2-yl)amino)cyclohexyl)amino)-5,8,11-trioxa-2-azatridecyl)-6-oxo-4,6-dihydro-5H-thieno[2,3-c]pyrrol-5-yl)piperidine-2,6-dione]	50 to 70	< 50	< 50	< 50
–	50 to 75	–	–	–	–	Cn1ncc(-c2nc(N[C@H]3CC[C@H](NCC(=O)NCCOCCOCCOCCNCC(=O)NCc4cc5c(s4)C(=O)N(C4CCC(=O)NC4=O)C5)CC3)ncc2Cl)c1CC1CC1 (some centres unmarked) [Compound 43, 14-(2-(((1r,4r)-4-((5-chloro-4-(5-(cyclopropylmethyl)-1-methyl-1H-pyrazol-4-yl)pyrimidin-2-yl)amino)cyclohexyl)amino)acetamido)-N-((5-(2,6-dioxopiperidin-3-yl)-6-oxo-5,6-dihydro-4H-thieno[2,3-c]pyrrol-2-yl)methyl)-6,9,12-trioxa-3-azatetradecanamide]	50 to 70	< 50	< 50	< 50
≥ 75	≥ 75	–	–	–	–	Cn1ncc(-c2nc(N[C@H]3CC[C@H](NCCCCCCCNCc4ccc(OCc5scc6c5CN([C@H]5CCC(=O)NC5=O)C6=O)cc4)CC3)ncc2Cl)c1CC1CC1 [Compound 68, (S)-3-(1-((4-(((7-(((1r,4r)-4-((5-chloro-4-(5-(cyclopropylmethyl)-1-methyl-1H-pyrazol-4-yl)pyrimidin-2-yl)amino)cyclohexyl)amino)heptyl)amino)methyl)phenoxy)methyl)-4-oxo-4H-thieno[3,4-c]pyrrol-5(6H)-yl)piperidine-2,6-dione]	> 90	–	–	–
50 to 75	< 25	–	–	–	–	Cn1ncc(-c2nc(N[C@H]3CC[C@H](NCC(=O)NCCOCCOCCOCCNc4cccc5c4C(=O)N(C4CCC(=O)NC4=O)C5=O)CC3)ncc2Cl)c1CC1CC1 (some centres unmarked) [Compound 49, 2-(((1r,4r)-4-((5-chloro-4-(5-(cyclopropylmethyl)-1-methyl-1H-pyrazol-4-yl)pyrimidin-2-yl)amino)cyclohexyl)amino)-N-(2-(2-(2-(2-((2-(2,6-dioxopiperidin-3-yl)-1,3-dioxoisoindolin-4-yl)amino)ethoxy)ethoxy)ethoxy)ethyl)acetamide]	> 90	–	–	–

The next lines start with the molecule.

SMILES	Dmax at 1 µM (IKAROS) [%]	Dmax at 1 µM (GSPT1) [%]	Dmax at 0.1 µM (CDK16) [%]	Dmax at 1 µM (CDK16) [%]	Dmax at 0.1 µM (CDK9) [%]	Dmax at 1 µM (CDK9) [%]	viability at 1 µM (MOLM-13 cells) [%]	inhibition at 1 µM (TNF-α) [%]	inhibition at 1 µM (IL-6) [%]	inhibition at 1 µM (IL-1β) [%]
CC(C)(C)c1cnc(CSc2cnc(NC(=O)C3CCN(CC(=O)NCCCCNCC(=O)NCc4cc5c(s4)C(=O)N(C4CCC(=O)NC4=O)C5)CC3)s2)o1 (centres unmarked) [Compound 14, N-(5-(((5-(tert-butyl)oxazol-2-yl)methyl)thio)thiazol-2-yl)-1-(2-((4-((2-(((5-(2,6-dioxopiperidin-3-yl)-6-oxo-5,6-dihydro-4H-thieno[2,3-c]pyrrol-2-yl)methyl)amino)-2-oxoethyl)amino)butyl)amino)-2-oxoethyl)piperidine-4-carboxamide]	< 25	25 to 50	< 25	25 to 50	25 to 50	≥ 75	> 90	–	–	–
Cn1ncc(-c2nc(N[C@H]3CC[C@H](NCC(=O)NCCCCCNCC(=O)NCc4scc5c4CN(C4CCC(=O)NC4=O)C5=O)CC3)ncc2F)c1CC1CC1 (some centres unmarked) [Compound 32, 2-(((1r,4r)-4-((4-(5-(cyclopropylmethyl)-1-methyl-1H-pyrazol-4-yl)-5-fluoropyrimidin-2-yl)amino)cyclohexyl)amino)-N-(5-((2-(((5-(2,6-dioxopiperidin-3-yl)-4-oxo-5,6-dihydro-4H-thieno[3,4-c]pyrrol-1-yl)methyl)amino)-2-oxoethyl)amino)pentyl)acetamide]	50 to 75	25 to 50	50 to 75	≥ 75	50 to 75	≥ 75	> 90	–	–	–
Cn1ncc(-c2nc(N[C@H]3CC[C@H](NCC(=O)NCCCCNCC(=O)NCc4cc5c(s4)C(=O)N(C4CCC(=O)NC4=O)C5)CC3)ncc2F)c1CC1CC1 (some centres unmarked) [Compound 29, 2-(((1r,4r)-4-((4-(5-(cyclopropylmethyl)-1-methyl-1H-pyrazol-4-yl)-5-fluoropyrimidin-2-yl)amino)cyclohexyl)amino)-N-(4-((2-(((5-(2,6-dioxopiperidin-3-yl)-6-oxo-5,6-dihydro-4H-thieno[2,3-c]pyrrol-2-yl)methyl)amino)-2-oxoethyl)amino)butyl)acetamide]	50 to 75	< 25	25 to 50	50 to 75	25 to 50	50 to 75	> 90	–	–	–
Cn1ncc(-c2nc(N[C@H]3CC[C@H](NCC(=O)NCCCCNCC(=O)NCc4scc5c4CN(C4CCC(=O)NC4=O)C5=O)CC3)ncc2Cl)c1CC1CC1 (some centres unmarked) [Compound 38, 2-(((1r,4r)-4-((5-chloro-4-(5-(cyclopropylmethyl)-1-methyl-1H-pyrazol-4-yl)pyrimidin-2-yl)amino)cyclohexyl)amino)-N-(4-((2-(((5-(2,6-dioxopiperidin-3-yl)-4-oxo-5,6-dihydro-4H-thieno[3,4-c]pyrrol-1-yl)methyl)amino)-2-oxoethyl)amino)butyl)acetamide]	25 to 50	50 to 75	50 to 75	≥ 75	50 to 75	≥ 75	> 90	–	–	–
